Activity calls are given as the source filed them.
What was measured:
[1] = target: T1, Polyadenylate-binding protein 1 (Homo sapiens, UniProt P11940); assay: MLLE domain peptide-binding blockers, IC50 – biochemical, fluorescence polarization, FITC-PAM2 peptide, dose response (AID 602259); type: functional; conditions: read-out: IC50_Mean
[2] = target: T1, Polyadenylate-binding protein 1; assay: MLLE binding blockers, Cy5 peptide tracer – biochemical, fluorescence polarization, Cy5-PAM2 peptide, secondary, miRNA deadenylation inhibitor project, dose response (AID 602260); type: functional; conditions: read-out: IC50_Mean
cells = type: functional
[3] = fluconazole-exposed Candida albicans growth modulators – fluorescence, retest, confirmation (AID 2467); type: functional, cell-based
[4] = NIH-3T3 fibroblast cytotoxicity, dose response, cytotoxicity control, cell-based, fluorescence, Alamar Blue, secondary assay (AID 2327); type: functional;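 also: NIH-3T3 mouse fibroblasts cultured with fluconazole at 8 µg/mL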
[5] = test system: Streptococcus sp. 'group A'; assay: Streptococcus pyogenes SK(-)GAS viability under kanamycin – luminescence, BacTiterGlo, confirmation, counter-screen for streptokinase expression inhibitor project, dose response (AID 1900); type: functional, organism-based
[6] = luciferase reporter signal suppression in cells – H4 neuroglioma cells, luminescence, dose response (AID 1990); type: functional, cell-based
[7] = Luminescence Cell-Based Dose Response HTS to Identify Inhibitors of 5'UTR Stem-Loop Driven Prion Protein mRNA Translation in H4 Neuroglioblastoma Cells. [Related pubchem assays: 1827 (Project Summary), 1813 (Primary HTS)]; type: functional
[8] = alpha-synuclein stem-loop luciferase translation blockers – H4 neuroglioma cells, luminescence, confirmation (AID 1988); type: functional, cell-based
Streptokinase A = target: T2, Streptokinase A (Streptococcus pyogenes serotype M1, UniProt P10520); assay: viability-normalized secreted streptokinase activity reduction – plasminogen activation absorbance, OD405, dose response (AID 1914); type: functional, Streptococcus pyogenes M1 GAS;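 also: secreted streptokinase activity via plasminogen activation per viability signal from cell pellet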
T2 sequence (P10520 whole entry): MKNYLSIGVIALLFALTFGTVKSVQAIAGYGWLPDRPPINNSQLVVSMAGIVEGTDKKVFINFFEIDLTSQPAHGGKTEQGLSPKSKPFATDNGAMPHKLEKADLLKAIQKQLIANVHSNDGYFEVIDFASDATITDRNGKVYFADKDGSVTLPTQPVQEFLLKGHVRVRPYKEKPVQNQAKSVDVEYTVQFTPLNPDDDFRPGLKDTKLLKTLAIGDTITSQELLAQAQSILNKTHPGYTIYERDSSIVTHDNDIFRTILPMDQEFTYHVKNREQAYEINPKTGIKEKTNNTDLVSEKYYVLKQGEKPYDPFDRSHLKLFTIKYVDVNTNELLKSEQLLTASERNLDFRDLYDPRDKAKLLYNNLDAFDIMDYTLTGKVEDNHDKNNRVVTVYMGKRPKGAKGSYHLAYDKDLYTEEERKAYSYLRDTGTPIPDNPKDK

Streptococcus = assay: GAS UMAA2166 growth inhibition – luminescence, BacTiterGlo, counter-screen for streptokinase expression inhibitor project, dose response (AID 1915); type: functional, organism-based;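 also: potency for reduction of bacterial viability or growth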
[9] = blockers of HIV-1 envelope-mediated cell-cell fusion – cherry-pick, dose response (AID 652057); type: functional, cell-based
[10] = reduction of Shn3 3'UTR-driven luciferase in osteoblasts – cell-based, Clone20 osteoblasts, firefly luciferase, cherry-picked, dose response (AID 624132); type: functional;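 also: firefly luciferase luminescence from reporter carrying the Shn3 3'UTR in osteoblasts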
[11] = non-specific 3'UTR reporter inhibition in Clone20-Shn3RL – cell-based, Renilla luciferase, cherry-picked, counter-screen for Shn3 inhibitor project, dose response (AID 624133); type: functional
[12] = loss of viability in HepG2 cells – cell-based, CellTiter-Glo, cherry-picked, cytotoxicity control for Shn3 inhibitor project, dose response (AID 624134); type: functional
[13] = viability of PTEN-deleted HCT116 cells – cell-based, HCT116 PTEN knockout, dose response (AID 1047); type: functional;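 also: HCT116 colon tumor cells with PTEN knocked out; cells exposed to compound for 60 hours before readout; potency for loss of cell viability measured by luminescence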
[14] = viability of HCT116 lacking mutant beta-catenin – cell-based, human colon tumor, dose response (AID 1045); type: functional;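 also: HCT116 colon tumor cells with beta catenin knocked out; cells exposed to compound for 60 hours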
[15] = target: T3, Rac GTPase-activating protein 1 (Homo sapiens, UniProt Q9H0H5); assay: blockers of MgcRacGAP-driven Rac1 GTP hydrolysis – biochemical, ADP Hunter fluorescence, primary and confirmatory, confirmation (AID 624330); type: functional
T3 sequence (Q9H0H5 whole entry): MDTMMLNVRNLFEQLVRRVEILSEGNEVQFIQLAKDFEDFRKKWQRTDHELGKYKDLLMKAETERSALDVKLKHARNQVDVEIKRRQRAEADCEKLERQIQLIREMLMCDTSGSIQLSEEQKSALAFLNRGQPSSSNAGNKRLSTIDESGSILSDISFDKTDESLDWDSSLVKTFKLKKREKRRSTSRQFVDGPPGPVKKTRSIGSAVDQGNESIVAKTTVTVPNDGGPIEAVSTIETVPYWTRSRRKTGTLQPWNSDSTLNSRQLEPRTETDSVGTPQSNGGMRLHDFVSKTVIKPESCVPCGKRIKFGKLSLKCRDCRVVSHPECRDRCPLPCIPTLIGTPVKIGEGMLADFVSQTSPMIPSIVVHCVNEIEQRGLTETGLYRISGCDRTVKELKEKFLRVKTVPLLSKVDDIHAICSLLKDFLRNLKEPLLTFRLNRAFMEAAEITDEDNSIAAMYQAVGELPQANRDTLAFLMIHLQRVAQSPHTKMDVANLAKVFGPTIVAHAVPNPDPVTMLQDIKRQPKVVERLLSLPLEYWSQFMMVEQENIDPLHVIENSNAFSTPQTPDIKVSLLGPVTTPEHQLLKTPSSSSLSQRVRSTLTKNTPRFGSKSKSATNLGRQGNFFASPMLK

INS1 = assay: INS-1E survival protection against cytokine death – cell-based, luminescence, retest, dose response (AID 449756); type: functional; conditions: Rattus norvegicus;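 also: cell death triggered by IL-1 beta plus TNF-alpha plus IFN-gamma mixture; protective hits raise ATP signal compared with cytokine alone wells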
[16] = target: T4, Zinc finger protein mex-5 (Caenorhabditis elegans, UniProt Q9XUB2); assay: potency of MEX-5 RNA-binding blockers – biochemical, C. elegans, fluorescence polarization, dose response (AID 1960)
T4 sequence (Q9XUB2 whole entry): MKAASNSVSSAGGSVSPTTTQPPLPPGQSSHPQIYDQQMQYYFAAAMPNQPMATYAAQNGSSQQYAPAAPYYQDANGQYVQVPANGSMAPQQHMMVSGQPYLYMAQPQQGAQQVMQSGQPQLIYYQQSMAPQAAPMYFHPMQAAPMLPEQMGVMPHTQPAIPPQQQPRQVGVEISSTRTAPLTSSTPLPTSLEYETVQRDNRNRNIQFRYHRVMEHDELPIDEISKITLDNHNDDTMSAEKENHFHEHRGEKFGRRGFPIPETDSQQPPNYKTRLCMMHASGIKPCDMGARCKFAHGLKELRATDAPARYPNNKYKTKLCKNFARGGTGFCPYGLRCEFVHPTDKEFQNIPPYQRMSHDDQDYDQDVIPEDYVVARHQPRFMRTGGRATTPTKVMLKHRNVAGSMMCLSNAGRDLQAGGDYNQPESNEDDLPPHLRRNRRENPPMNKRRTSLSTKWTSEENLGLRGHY

[17] = target: T5, RNA-binding protein pos-1 (Caenorhabditis elegans, UniProt G5EF15); assay: disruptors of C. elegans POS-1 RNA interaction – biochemical, fluorescence polarization, dose response (AID 1964);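 also: purified POS-1 fused to maltose binding protein made in E. coli; potency of compounds blocking POS-1 binding to fluorescent RNA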
T5 sequence (G5EF15 whole entry): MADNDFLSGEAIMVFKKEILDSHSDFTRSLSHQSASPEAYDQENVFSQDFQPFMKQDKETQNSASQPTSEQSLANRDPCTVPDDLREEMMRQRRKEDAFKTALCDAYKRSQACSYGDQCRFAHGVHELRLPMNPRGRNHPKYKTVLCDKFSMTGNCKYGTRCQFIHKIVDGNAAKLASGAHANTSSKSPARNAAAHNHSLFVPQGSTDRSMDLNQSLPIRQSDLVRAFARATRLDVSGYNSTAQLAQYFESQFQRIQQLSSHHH

[18] = Luminescence Cell-Based Dose Retest to Confirm Inhibitors of Cancer Stem Cells. [Related pubchem assays (depositor defined):AID2717, AID2721]; type: functional; conditions: Homo sapiens
Cytochrome P450 3A4 = Cytochrome P450 3A4 (Homo sapiens, UniProt P08684);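 also: CYP3A4 tested as one member of a cytochrome P450 panel screen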
Chain of Cytochrome P450 3A4 (P08684 whole entry): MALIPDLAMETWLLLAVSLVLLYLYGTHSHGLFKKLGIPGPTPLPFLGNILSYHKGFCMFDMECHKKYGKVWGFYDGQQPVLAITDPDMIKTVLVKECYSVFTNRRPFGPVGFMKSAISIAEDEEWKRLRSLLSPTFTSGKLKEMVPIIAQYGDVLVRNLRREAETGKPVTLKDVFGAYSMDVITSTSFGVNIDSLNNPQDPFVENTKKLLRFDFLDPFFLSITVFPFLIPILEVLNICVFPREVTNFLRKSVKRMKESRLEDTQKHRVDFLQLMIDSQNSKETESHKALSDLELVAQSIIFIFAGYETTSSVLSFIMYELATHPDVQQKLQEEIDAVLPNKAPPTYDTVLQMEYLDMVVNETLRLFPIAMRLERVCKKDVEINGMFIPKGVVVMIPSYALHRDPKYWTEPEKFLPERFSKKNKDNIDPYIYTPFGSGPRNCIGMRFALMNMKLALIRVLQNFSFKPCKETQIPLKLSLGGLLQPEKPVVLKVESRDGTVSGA

Paired box protein Pax-8 = Paired box protein Pax-8 (Homo sapiens, UniProt Q06710); assay: PAX8 transcriptional activity inhibition in RMG-I – RMG-I cells, luciferase, cherry-pick, dose response (AID 687027); type: functional, cell-based;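 also: luciferase reporter driven by Pax8 target thyroperoxidase promoter measured by SteadyGlo luminescence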
Chain of Paired box protein Pax-8 (Q06710 whole entry): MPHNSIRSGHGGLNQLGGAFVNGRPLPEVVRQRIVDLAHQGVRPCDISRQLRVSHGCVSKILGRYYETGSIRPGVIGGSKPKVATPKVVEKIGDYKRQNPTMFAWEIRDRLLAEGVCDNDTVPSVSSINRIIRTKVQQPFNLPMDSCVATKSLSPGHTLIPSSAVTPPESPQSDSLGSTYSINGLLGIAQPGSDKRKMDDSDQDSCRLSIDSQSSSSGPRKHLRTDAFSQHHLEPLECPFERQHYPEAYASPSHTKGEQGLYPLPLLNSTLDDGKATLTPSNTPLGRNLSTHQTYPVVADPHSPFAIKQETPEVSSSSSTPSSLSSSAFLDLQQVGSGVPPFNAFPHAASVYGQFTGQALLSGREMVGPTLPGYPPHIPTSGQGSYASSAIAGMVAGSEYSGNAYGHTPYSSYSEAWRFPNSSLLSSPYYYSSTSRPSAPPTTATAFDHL

T1 sequence (P11940 whole entry, the tested form may be a part): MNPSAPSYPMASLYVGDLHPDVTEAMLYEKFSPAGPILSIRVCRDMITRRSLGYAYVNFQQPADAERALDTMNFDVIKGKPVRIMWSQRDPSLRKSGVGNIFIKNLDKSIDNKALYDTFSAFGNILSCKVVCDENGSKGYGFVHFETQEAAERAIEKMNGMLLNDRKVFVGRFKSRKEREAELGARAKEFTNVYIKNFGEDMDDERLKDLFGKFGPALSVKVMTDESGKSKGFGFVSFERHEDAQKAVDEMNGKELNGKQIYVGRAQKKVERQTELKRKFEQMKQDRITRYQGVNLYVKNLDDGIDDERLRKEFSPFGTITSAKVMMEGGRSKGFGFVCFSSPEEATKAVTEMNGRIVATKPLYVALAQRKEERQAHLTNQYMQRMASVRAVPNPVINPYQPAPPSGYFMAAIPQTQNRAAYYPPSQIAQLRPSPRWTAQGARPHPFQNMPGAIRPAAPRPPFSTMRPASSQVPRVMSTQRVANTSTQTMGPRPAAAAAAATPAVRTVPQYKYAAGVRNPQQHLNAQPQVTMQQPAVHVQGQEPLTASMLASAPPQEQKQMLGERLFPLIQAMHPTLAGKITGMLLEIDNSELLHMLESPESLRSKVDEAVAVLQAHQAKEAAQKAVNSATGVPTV

## O=[N+]([O-])c1cccc(C(=S)N2CCN(c3ccc(F)cc3)CC2)c1
[1]
  IC50: > 66 µM (inactive)
[2]
  IC50: > 66 µM (inactive)

## O=C(O)CCCCCN1C(=O)/C(=C\c2ccncc2)SC1=S
cells
  IC50: 23.6 µM (active)
[3]
  EC50: 1.45 µM (active)
[4]
  EC50: 6.7 µM (inconclusive)

## COc1ccc2cc3c(N)nn(C(=O)C4CCC(C(C)(C)C)CC4)c3nc2c1 (configuration not stated)
[5]
  EC50: 2.15 µM (active)
[6]
  EC50: 51.1 µM (active)
[7]
  EC50: 9.82 µM (active)
[8]
  EC50: 12.3 µM (active)
Streptokinase A
  EC50: > 150 µM (not active)
Streptococcus
  EC50: 4.71 µM (active)

## O=C(Nc1ccc(Cl)cc1)C1CCCN(C2=NS(=O)(=O)c3ccccc32)C1 (configuration not stated)
[9]
  AC50: 25.9 µM (active)

## Cc1nn(Cc2ccc(Cl)cc2)c(C)c1NC(=O)c1cc(C(C)C)on1
[10]
  AC50: 6.2 µM (active)
[11]
  AC50: 9.1 µM (active)
[12]
  AC50: 67 µM (active)

## O=C(Nc1nnc(-c2cccs2)o1)c1cccc(F)c1
[3]
  EC50: 1.25 µM (active)
[13]
  EC50: 10.5 µM (active)
[14]
  EC50: 8.96 µM (active)
[4]
  EC50: > 160 µM (inactive)

## CCOC(=O)CCNC(C)C1COc2ccccc2O1 (configuration not stated)
[15]
  IC50: 178 µM (active)

## S=C(NCCCCN(Cc1ccc(Cl)cc1)c1ccc(Br)cn1)NCCCc1cnc[nH]1
[10]
  AC50: 7.24 µM (active)
[11]
  AC50: 39.3 µM (active)
[12]
  AC50: 19.5 µM (active)

## CCCNC(=O)c1ccc2c(O)c(O)c(-c3ccc(Cl)c([N+](=O)[O-])c3)nc2c1
[3]
  EC50: 2.18 µM (active)
INS1
  AC50: 5.06 µM (active)
[4]
  EC50: > 150 µM (inactive)

## COc1cccc2cc(C(=O)Oc3ccc(NC(C)=O)cc3)c(=O)oc12
[15]
  IC50: 34.9 µM (active)

## Cn1c(C(=O)NC2CCCCCC2)cc2c(=O)n(C)c3ccccc3c21
[13]
  EC50: 24.4 µM (active)
[14]
  EC50: 21.1 µM (active)

## Cn1c(COc2ccc(Br)cc2)nnc1SC1CCc2ccccc2C1=O (configuration not stated)
[10]
  AC50: 35.2 µM (active)
[11]
  AC50: 12.5 µM (active)
[12]
  AC50: 58.9 µM (active)

## COc1cc(C(CC(=O)N2CCCC2)c2c(OC)cc(OC)c3ccc(=O)oc23)cc(OC)c1OC (configuration not stated)
[1]
  IC50: 60.3 µM (inactive)
[2]
  IC50: > 66 µM (inactive)
[16]
  EC50: 16.2 µM (active)
[17]
  EC50: 8.14 µM (inconclusive)

## CC(C)C1=C2CCCCC2NC(=O)N1 (configuration not stated)
[1]
  IC50: > 66 µM (inactive)
[2]
  IC50: > 66 µM (inactive)

## CCCOc1nc2c(c(=O)n(C)c(=O)n2C)n1Cc1cccc2ccccc12
[13]
  EC50: 49 µM (active)
INS1
  AC50: 6.39 µM (active)
[14]
  EC50: 27.1 µM (active)

## N#CCSc1nnc(CNc2ccc(F)cc2)o1
[1]
  IC50: > 66 µM (inactive)
[2]
  IC50: > 66 µM (inactive)

## O=C(O)c1cccc(NC(=S)NC(=O)c2ccncc2)c1
[1]
  IC50: > 66 µM (inactive)
[2]
  IC50: > 66 µM (inactive)

## C=CCNC(=S)NS(=O)(=O)c1cccs1
[1]
  IC50: > 66 µM (inactive)
[2]
  IC50: > 66 µM (inactive)

## O=C(NC(=S)Nc1ccc(S(=O)(=O)N2CCCC2)cc1)c1cccs1
[1]
  IC50: > 66 µM (inactive)
[2]
  IC50: > 66 µM (inactive)

## CCOC(=O)C1(Cc2cccc(OC)c2)CCN(C/C=C/c2ccc(OC)cc2)CC1
[10]
  AC50: 4.75 µM (active)
[11]
  AC50: 5.59 µM (active)
[12]
  AC50: 51.6 µM (active)

## Cc1ccc(Cl)cc1NC(=O)c1ccccc1OCC(=O)Nc1ccc(Cl)cc1
[13]
  EC50: 8.82 µM (active)
[14]
  EC50: 10.9 µM (active)
[18]
  AC50: 10.6 µM (inconclusive)

## Cc1cccc(NC(=S)NC(=O)c2cccs2)n1
[1]
  IC50: > 66 µM (inactive)
[2]
  IC50: > 66 µM (inactive)
Cytochrome P450 3A4
  AC50: 28.2 µM (inconclusive)

## Cc1oc(-c2ccc(Cl)cc2)nc1CN1CCCC(C(=O)N2CCN(C(=O)c3ccco3)CC2)C1 (configuration not stated)
[13]
  EC50: 26 µM (active)
[14]
  EC50: 17.3 µM (active)

## O=C(Nc1nnc(COc2ccc(F)cc2)s1)c1ccco1
[3]
  EC50: 3.15 µM (active)
[4]
  EC50: > 160 µM (inactive)

## COC(=O)C1=C(c2ccc(F)cc2OCc2ccccc2)C[C@@H]2CC[C@H]1N2C(=O)NCc1ccc(C(F)(F)F)cc1
[10]
  AC50: 9.14 µM (active)
[11]
  AC50: 7.19 µM (active)
Paired box protein Pax-8
  AC50: 10.9 µM (active)
[12]
  AC50: > 70 µM (inactive)

## COc1ccccc1CNc1nc(NCc2ccccc2SC)c2sccc2n1
[10]
  AC50: 4.48 µM (active)
[11]
  AC50: 5.2 µM (active)
[12]
  AC50: 21.1 µM (active)

## Cc1ccc(-c2ccc3c(c2)O[C@@H](CN(C)Cc2cccnc2)[C@H](C)CN([C@H](C)CO)S3(=O)=O)cc1
[9]
  AC50: 33.3 µM (active)

## Cc1nn(-c2ccccc2)c(C)c1/C=N/NC(=O)CSc1nc2ccccc2c(=O)n1-c1ccc(Br)cc1
[13]
  EC50: 7.38 µM (active)
[14]
  EC50: 7.27 µM (active)

## Oc1ccccc1/C=N/n1c(S)nnc1-c1ccccc1
[15]
  IC50: 82.2 µM (active)

## Cc1cc(O)c(/C=N/Nc2ccc(Cl)cc2)c(=O)o1
[3]
  EC50: 0.273 µM (active)
[4]
  EC50: 29.8 µM (active)

## O=C(N/N=C/c1cc([N+](=O)[O-])ccc1O)C1C2CCCCC21 (configuration not stated)
[3]
  EC50: 2.35 µM (active)
[4]
  EC50: > 150 µM (inactive)
